From patent US8691761B2, “Somatostatin receptor 2 antagonists” (priority 2006, dated 2014)
Like-named read-outs stand apart in the source and are kept apart here. Bridge positions count the residues as written; N and C are the ends. Square brackets hold non-standard residues; d marks the D form. Peptide text beside a SMILES is read from it. * marks the point of attachment. ξ: configuration not given here. Phe(4-NO2) = N[C@@H](Cc1ccc([N+](=O)[O-])cc1)C(=O)O; dPhe(4-NHCONH2) = NC(=O)Nc1ccc(C[C@@H](N)C(=O)O)cc1; Phe(4-NHCONH2) = NC(=O)Nc1ccc(C[C@H](N)C(=O)O)cc1; Phe(4-Cl) = N[C@@H](Cc1ccc(Cl)cc1)C(=O)O; ξDihydroorotoyl = O=C1CC(C(=O)*)NC(=O)N1; Phe(4-NH2) = Nc1ccc(C[C@H](N)C(=O)O)cc1; X1 = NC(=O)N[C@@H](Cc1ccc(Cl)cc1)C(=O)*; 2Nal = N[C@@H](Cc1ccc2ccccc2c1)C(=O)O

How the values were obtained:
hSSTR1 = target: T1, hSSTR1 (Homo sapiens, UniProt P30872); assay: Receptor autoradiography, displacement of 125I-[Leu8,D-Trp22,Tyr25]-SRIF-28 from membrane pellet sections; assay type: binding; conditions: Table 3; mean ± SEM when N ≧ 3; read-out: sst1 binding affinity (IC50)
T1 construct: expressed in transfected cells; host or cells: CHO-K1 or CCL39 cells
Description: (§1) Generally, recombinant cells expressing the receptor are washed and homogenized to prepare a crude protein homogenate in a suitable buffer. In a typical assay, an amount of protein from the cell homogenate is placed into a small volume of an appropriate assay buffer at an appropriate pH. Candidate substances, such as potential SRIF agonists and antagonists, are added to the admixture in convenient concentrations, and the interaction between the candidate substance and the receptor polypeptide is monitored.
(§2) In vitro Bioassay: The effects of the various somatostatin analogs were tested in vitro for their ability to bind to isolated cloned receptors expressed on CHO-K1 cells and CCL39 cells. The molecular cloning of the genes encoding multiple somatostatin receptor subtypes permitted the individual expression of these receptors in mammalian cells and the characterization of their respective pharmacological profiles.
(§3) CHO-K1 cells were grown in Ham's F-12 medium, and CCL39 cells were grown in Dulbecco's modified Eagle's medium/Ham's F-12(1:1) mix, supplemented with 10% fetal bovine serum, 100 U/ml penicillin and 100 μg/ml streptomycin, in humidified air containing 5% CO2 at 37° C. Cells were washed twice with and scraped into ice-cold 0.05 M Tris-HCl (pH 7.4), collected by centrifugation, and homogenized using a rotor/stator/system in the same buffer. After centrifugation at 120 g for 5 min at 4° C., the supernatant was collected and centrifuged again at 48,000 g for 30 min at 4° C. The resulting pellet was resuspended in ice-cold Tris buffer, transferred into a microfuge tube, and centrifuged at 20,000 g for 15 min at 4° C. After withdrawal of the supernatant, the membrane pellet was stored at −80° C.
(§4) Receptor autoradiography was performed on 20 μm thick cryostat sections of the membrane pellets, mounted on microscope slides, and then stored at −20° C. […] Increasing concentrations of the unlabeled peptide were used ranging from 0.1-1000 nM. […] IC50 values were calculated after quantification of the data using a computer-assisted image processing system as known in this art.
(§5) The numbers in parentheses indicate the number of times the particular binding test was carried out.
(§6) Receptor autoradiography. Cell membrane pellets were prepared as previously described, and stored at −80° C. Receptor autoradiography was performed on 20-μm thick cryostat (Microm HM 500, Walldorf, Germany) sections of the membrane pellets, mounted on microscope slides, and then stored at −20° C. […] After a brief dip in distilled water to remove excess salts, the sections were dried quickly and exposed for 1 week to Kodak BioMax MR film. IC50 values were calculated after quantification of the data using a computer-assisted image processing system as described previously. […] (Reubi, J. C. “In vitro identification of vasoactive intestinal peptide receptors in human tumors: Implications for tumor imaging.” J. Nucl. Med. 1995, 36, 1846-1853).
(§7) To investigate their ssts binding properties, the peptides were tested for their ability to bind to cryostat sections from membrane pellets of cells expressing the five human ssts (Table 3).

hSSTR4 = target: T2, hSSTR4 (Homo sapiens, UniProt P31391); assay: as above; assay type: binding
T2 construct: expressed in transfected cells; host or cells: CHO-K1 or CCL39 cells
Description: as §1, §2, §3, §4, §5, §6, §7

hSSTR5 = target: T3, hSSTR5 (Homo sapiens, UniProt P35346); assay: as above; assay type: binding; conditions: Table 3; mean ± SEM when N ≧ 3; read-out: sst5 binding affinity (IC50)
T3 construct: expressed in transfected cells; host or cells: CHO-K1 or CCL39 cells
Description: as §1, §2, §3, §4, §5, §6, §7

hSSTR2 = target: T4, hSSTR2 (Homo sapiens, UniProt P30874); assay: as above; assay type: binding; conditions: for IC50: Table 3, mean ± SEM when N ≧ 3
T4 construct: expressed in transfected cells; host or cells: CHO-K1 or CCL39 cells
Description: as §1, §2, §3, §4, §5, §6, §7

hSSTR3 = target: T5, hSSTR3 (Homo sapiens, UniProt P32745); assay: as above; assay type: binding; conditions: Table 3; mean ± SEM when N ≧ 3; read-out: sst3 binding affinity (IC50)
T5 construct: expressed in transfected cells; host or cells: CHO-K1 or CCL39 cells
Description: as §1, §2, §3, §4, §5, §6, §7

human sst2A receptor = target: T6, human sst2A receptor (Homo sapiens, UniProt P30874); assay: Immunofluorescence-based sst2 internalization assay in HEK-sst2 cells; assay type: cell-based; conditions: n ≧ 2
T6 construct: expressed in transfected cells; host or cells: HEK293 (HEK-sst2)
Description: Immunofluorescence-based sst2 Internalization Assay. Immunofluorescence microscopy-based internalization assay for sst2 was performed with HEK-sst2 using the sst2-specific antibody R2-88 as described elsewhere herein. HEK-sst2 cells were treated either with vehicle alone, the sst2 agonist [Tyr^3]-octreotide at a concentration of 100 nM, [Tyr^3]-octreotide at a concentration of 100 nM in the presence of an excess of the SRIF analogues to be tested (100 times the concentration of [Tyr^3]-octreotide), or with the SRIF analogues to be tested alone at a concentration of 10 μM, and then processed for immunofluorescence microscopy as described previously.

[1] = Table 3, mean ± SEM when N ≧ 3, read-out: sst4 binding affinity (IC50)
[2] = read-out: sst2 binding affinity (IC50)

T1 sequence (P30872 whole entry): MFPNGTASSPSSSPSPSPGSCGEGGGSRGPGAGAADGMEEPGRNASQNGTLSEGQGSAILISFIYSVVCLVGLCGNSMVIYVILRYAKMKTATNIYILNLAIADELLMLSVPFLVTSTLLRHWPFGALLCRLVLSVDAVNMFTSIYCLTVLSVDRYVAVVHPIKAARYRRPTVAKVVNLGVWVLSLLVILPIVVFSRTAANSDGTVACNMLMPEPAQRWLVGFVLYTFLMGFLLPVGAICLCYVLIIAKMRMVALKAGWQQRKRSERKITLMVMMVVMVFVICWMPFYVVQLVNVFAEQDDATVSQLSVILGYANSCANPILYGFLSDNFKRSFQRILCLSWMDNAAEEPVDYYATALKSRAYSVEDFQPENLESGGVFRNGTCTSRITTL
T2 sequence (P31391 whole entry): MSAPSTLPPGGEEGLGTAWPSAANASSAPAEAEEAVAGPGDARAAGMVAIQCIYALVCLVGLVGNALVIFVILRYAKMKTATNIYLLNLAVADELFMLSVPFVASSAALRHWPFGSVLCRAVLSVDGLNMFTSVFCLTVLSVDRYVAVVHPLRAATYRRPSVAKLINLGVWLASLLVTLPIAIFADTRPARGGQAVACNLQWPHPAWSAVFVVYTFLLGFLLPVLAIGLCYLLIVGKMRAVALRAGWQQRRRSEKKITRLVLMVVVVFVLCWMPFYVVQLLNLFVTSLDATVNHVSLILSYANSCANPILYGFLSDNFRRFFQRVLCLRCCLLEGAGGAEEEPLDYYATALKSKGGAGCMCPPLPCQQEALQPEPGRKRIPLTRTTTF
T4 sequence (P30874 whole entry): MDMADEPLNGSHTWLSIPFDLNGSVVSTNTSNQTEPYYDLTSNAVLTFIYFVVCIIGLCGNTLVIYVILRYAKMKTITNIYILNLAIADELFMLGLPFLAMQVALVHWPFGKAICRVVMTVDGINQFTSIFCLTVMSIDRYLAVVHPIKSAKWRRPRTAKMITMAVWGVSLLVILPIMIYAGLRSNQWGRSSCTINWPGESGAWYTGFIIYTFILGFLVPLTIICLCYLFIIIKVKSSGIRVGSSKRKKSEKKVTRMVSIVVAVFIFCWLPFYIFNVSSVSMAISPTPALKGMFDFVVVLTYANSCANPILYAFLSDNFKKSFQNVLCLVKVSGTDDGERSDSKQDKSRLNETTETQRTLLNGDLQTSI
T3 sequence (P35346 whole entry): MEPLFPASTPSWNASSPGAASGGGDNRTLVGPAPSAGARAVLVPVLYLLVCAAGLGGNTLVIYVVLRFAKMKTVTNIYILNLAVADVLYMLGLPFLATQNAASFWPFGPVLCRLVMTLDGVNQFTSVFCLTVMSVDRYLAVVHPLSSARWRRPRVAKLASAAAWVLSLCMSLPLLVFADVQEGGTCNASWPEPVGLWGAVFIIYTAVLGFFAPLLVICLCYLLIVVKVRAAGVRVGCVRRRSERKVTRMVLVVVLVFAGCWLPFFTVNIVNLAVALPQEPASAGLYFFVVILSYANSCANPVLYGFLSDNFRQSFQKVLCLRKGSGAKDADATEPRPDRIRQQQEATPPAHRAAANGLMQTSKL
T5 sequence (P32745 whole entry): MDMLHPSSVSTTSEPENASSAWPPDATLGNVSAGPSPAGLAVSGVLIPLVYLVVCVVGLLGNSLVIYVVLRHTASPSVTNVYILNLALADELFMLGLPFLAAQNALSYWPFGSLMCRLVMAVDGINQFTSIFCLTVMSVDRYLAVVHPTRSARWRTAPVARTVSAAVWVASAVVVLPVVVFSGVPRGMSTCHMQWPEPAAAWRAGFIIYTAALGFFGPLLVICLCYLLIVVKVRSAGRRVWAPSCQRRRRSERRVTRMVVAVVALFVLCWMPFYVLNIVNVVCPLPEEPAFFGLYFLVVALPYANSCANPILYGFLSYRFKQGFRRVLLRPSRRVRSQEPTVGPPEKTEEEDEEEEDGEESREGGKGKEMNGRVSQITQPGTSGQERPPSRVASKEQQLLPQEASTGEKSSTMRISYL
T6 sequence (P30874 whole entry): as the sequence (P30874 whole entry) above

SMILES | IC50 (hSSTR1) [nM] | IC50 (hSSTR4; [1]) [nM] | IC50 (hSSTR5) [nM] | IC50 (hSSTR3) [nM] | loss of binding affinity for sst2 as compared to 7 (hSSTR2) [fold] | IC50 (hSSTR2; [2]) [nM] | sst2-internalization tested in vitro in HEK-sst2 cells (function) (human sst2A receptor) | IC50 (hSSTR2; sst2 binding affinity (IC50)) [nM] | IC50 (hSSTR4) [nM]
C[C@@H](O)[C@@H]1NC(=O)[C@H](CCCCN)NC(=O)[C@@H](Cc2ccc(NC(N)=O)cc2)NC(=O)[C@H](Cc2ccc(NC(=O)C3CC(=O)NC(=O)N3)cc2)NC(=O)[C@H](NC(=O)[C@@H](N)Cc2ccc([N+](=O)[O-])cc2)CSSC[C@@H](C(=O)N[C@@H](Cc2ccc3ccccc3c2)C(N)=O)NC1=O (stereo partly drawn) [compound 6, H2N-pNO2Phe-c[DCys-Aph(Hor)-DAph(Cbm)-Lys-Thr-Cys]-2Nal-NH2] (H-[Phe(4-NO2)][dC][Phe(4-NH2)](ξDihydroorotoyl)[dPhe(4-NHCONH2)]KTC[2Nal]-NH2; disulfide 2-7) | > 1000 | > 1000 | > 1000 |  |  |  |  |  | 
C[C@@H](O)[C@@H]1NC(=O)[C@H](CCCCN)NC(=O)[C@@H](Cc2c[nH]c3ccccc23)NC(=O)[C@@H](N(C)C(=O)c2ccccc2)NC(=O)[C@H](NC(=O)[C@@H](N)Cc2ccc(Cl)cc2)CSSC[C@@H](C(=O)N[C@@H](Cc2ccc3ccccc3c2)C(N)=O)NC1=O [compound 10, H2N-Cpa-c[DCys-D-Agl(NMe.benzoyl)-DTrp-Lys-Thr-Cys]-2Nal-NH2] | > 1000 |  | 728 ± 272 | 102 ± 10 |  |  |  | 158 ± 37 | 116 ± 47
CC(C)C[C@@H]1NC(=O)[C@H](NC(=O)[C@@H](N)Cc2ccc(Cl)cc2)CSSC[C@@H](C(=O)N[C@@H](Cc2ccc3ccccc3c2)C(N)=O)NC(=O)[C@H]([C@@H](C)O)NC(=O)[C@H](CCCCN)NC(=O)[C@@H](Cc2c[nH]c3ccccc23)NC1=O [compound 11, H2N-Cpa-c[DCys-Leu-DTrp-Lys-Thr-Cys]-2Nal-NH2] (H-[Phe(4-Cl)][dC]L[dW]KTC[2Nal]-NH2; disulfide 2-7) | > 1000 | 908 ± 138 | 657 ± 299 | 340 ± 77 | 10 | 58 ± 21 |  |  | 

Continued, in another order:

IC50 (hSSTR1) [nM] | IC50 (hSSTR4; [1]) [nM] | IC50 (hSSTR5) [nM] | IC50 (hSSTR3) [nM] | loss of binding affinity for sst2 as compared to 7 (hSSTR2) [fold] | IC50 (hSSTR2; [2]) [nM] | sst2-internalization tested in vitro in HEK-sst2 cells (function) (human sst2A receptor) | SMILES | IC50 (hSSTR2; sst2 binding affinity (IC50)) [nM] | IC50 (hSSTR4) [nM]
> 1000 | 136 ± 7.5 | 111 ± 17 | 54 ± 15 |  | 23 ± 4.3 |  | C[C@@H](O)[C@@H]1NC(=O)[C@H](CCCCN)NC(=O)[C@@H](Cc2c[nH]c3ccccc23)NC(=O)[C@H](Cc2ccc(NC(N)=O)cc2)NC(=O)[C@H](NC(=O)[C@H](Cc2ccc(Cl)cc2)NC(N)=O)CSSC[C@@H](C(=O)N[C@@H](Cc2ccc3ccccc3c2)C(N)=O)NC1=O [compound 13, Cbm-Cpa-c[DCys-Aph(Cbm)-DTrp-Lys-Thr-Cys]-2Nal-NH2] (X1-[dC][Phe(4-NHCONH2)][dW]KTC[2Nal]-NH2; disulfide 1-6) |  | 
 |  |  |  |  |  | Antagonist | C[C@@H](O)[C@@H]1NC(=O)[C@H](CCCCN)NC(=O)[C@@H](Cc2c[nH]c3ccccc23)NC(=O)[C@H](Cc2ccc(NC(N)=O)cc2)NC(=O)[C@H](NC(=O)[C@H](Cc2ccc(Cl)cc2)NC(=O)CCOCCOCCOCCNC(=O)CN2CCN(CC(=O)O)CCN(CC(=O)O)CCN(CC(=O)O)CC2)CSSC[C@@H](C(=O)N[C@@H](Cc2ccc3ccccc3c2)C(N)=O)NC1=O [compound 16, DOTA-Peg-Cpa-c[DCys-Aph(Cbm)-DTrp-Lys-Thr-Cys]-2Nal-NH2] |  | 
> 1000 | > 1000 | 247 ± 66 | 255 ± 79 |  | 4.1 ± 0.9 |  | C[C@@H](O)[C@@H]1NC(=O)[C@H](CCCCN)NC(=O)[C@@H](Cc2c[nH]c3ccccc23)NC(=O)[C@H](Cc2ccc(NC(N)=O)cc2)NC(=O)[C@H](NC(=O)[C@@H](N)Cc2ccc(Cl)cc2)CSSC[C@@H](C(=O)N[C@@H](CC2CCCCC2)C(N)=O)NC1=O [compound 18, H2N-Cpa-c[DCys-Aph(Cbm)-DTrp-Lys-Thr-Cys]-Cha-NH2] |  | 
